How the values were obtained:
[1] = molecular target: T1, His6-HGFR (HGFR cytoplasmic domain) (Homo sapiens, UniProt P08581); assay: Inhibitory activity against HGFR tyrosine kinase activity (HTRF); assay type: biochemical; settings: biotin-poly(GT), ATP, 30° C. 10 min
T1 construct: made in house; host or cells: Sf9 insect cells (Spodoptera frugiperda), baculovirus, pFastBac-HT vector
Description: The cytoplasmic domain of HGFR (Genbank Accession No. J02958) is a 1.3 kb DNA fragment beginning with Lys974 and including a stop codon, and described by Park et al. (Proc. Natl. Acad. Sci. U.S.A. 84(18), 6379-6383, 1987). The DNA fragment was isolated from the human placental cDNA library (purchased from Clontech) by PCR (TaKaRa Ex Taq™ Kit, purchased from TaKaRa) using two kinds of primers (SEQ ID NO: 1,5′-[…]-3′ and SEQ ID NO: 2,5′-[…]-3′, purchased from Invitrogen). The DNA fragment was cloned into a baculovirus transplace vector (pFastBac™-HT (purchased from GIBCO BRL)) to produce a recombinant construct. […] EGFR was purchased from Sigma (Production No. E-2645).
To the suspension of Sf9 cells (3×10^8 cells) in SF-900II medium (purchased from Invitrogen) containing 2% FBS was added a solution of HGFR transfected baculovirus above (4 ml), followed by a shaking culture at 27° C. for 48 hrs. The cells infected with the HGFR transfected baculovirus were centrifuged at 1,000 rpm, 4° C. for 5 min to remove the supernatant. The precipitated infected cells were suspended in 80 ml of ice-cold PBS, and centrifuged at 1,000 rpm, 4° C. for 5 min to remove the supernatant. The precipitated infected cells were suspended in 40 ml of ice-cold Lysis Buffer (50 mM Tris-HCl (pH 8.5), 5 mM 2-mercaptoethanol, 100 mM KCl, 1 mM PMSF and 1% (v/v) NP-40). The suspension was centrifuged at 12,000 rpm, 4° C. for 30 min to provide a supernatant.
The supernatant was loaded onto an Ni-NTA agarose column (3 ml, purchased from Qiagen) equilibrated with 30 ml of Buffer A (20 mM Tris-HCl (pH 8.5), 5 mM 2-mercaptoethanol, 500 mM KCl, 20 mM imidazole and 10% (v/v) glycerol). The column was washed with 30 ml of Buffer A, 6 ml of Buffer B (20 mM Tris-HCl (pH 8.5), 5 mM 2-mercaptoethanol, 1 M KCl, and 10% (v/v) glycerol) and 6 ml of Buffer A in this order. Then, the column was eluted with 6 ml of Buffer C (20 mM Tris-HCl (pH 8.5), 5 mM 2-mercaptoethanol, 100 mM KCl, 100 mM imidazole, and 10% (v/v) glycerol) to provide a fraction. The fraction was entrapped in a dialysis membrane (purchased from Spectrum Laboratories), dialyzed at 4° C. overnight with 1 L of dialysis buffer (20 mM Tris-HCl (pH 7.5), 10% (v/v) glycerol, 1 mM dithiothreitol, 0.1 mM Na3VO4 and 0.1 mM EGTA), and stored at −80° C. until used. […] The VEGFR2 cytoplasmic domain, the FGFR1 cytoplasmic domain, and the PDGFRβ cytoplasmic domain were fused with six histidine at the N terminus by the similar method to produce respective recombinant proteins (His6-VEGFR2, His6-FGFR1, and His6-PDGFRβ).
To each well of a 96-well round plate (purchased from NUNC, Production No. 163320) were added 10 μl of a solution for kinase reaction (200 mM Hepes (pH 7.4), 80 mM MgCl2, 16 mM MnCl2 and 2 mM Na3VO4), 250 ng of biotinylated poly(Glu4: Tyr1) (biotin-poly(GT), purchased from Japan Schering) (6 μl, 15-fold diluted with distilled water), 30 ng of His6-HGFR (10 μl, 60-fold diluted with 0.4% BSA) and a test substance dissolved in dimethylsulfoxide (4 μl, 100-fold diluted with 0.1% BSA) to mess up to 30 μl. To the well was added 10 μl of 4 μM ATP (purchased from Sigma) diluted with distilled water to incubate at 30° C. for 10 min, followed by adding 10 μl of 500 mM EDTA (pH 8.0) (purchased from Wako Pure Chemicals) to provide a kinase reaction solution.
The tyrosine-phosphorylated biotin-poly(GT) was detected using the Homogenous Time-Resolved Fluorescence (HTRF) method (Analytical Biochemistry, 269, 94-104, 1999).

[2] = test system: Human gastric cancer cells (MKN-45); assay: Inhibitory activity against the proliferation of human gastric cancer cells (MKN-45); assay type: cell-based; settings: 72 h, MKN-45, 1% FBS RPMI1640, 3 days, Cell Counting Kit-8
How it was run: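 MKN-45 cells seeded overnight in RPMI1640 with 1% FBS, then exposed to compound for 3 days at 37° C, 5% CO2. Viability read with CCK-8 after about 1.5 hrs, absorbance at 450 nm (reference 660 nm).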

T1 sequence (P08581 956-1390 limits assumed): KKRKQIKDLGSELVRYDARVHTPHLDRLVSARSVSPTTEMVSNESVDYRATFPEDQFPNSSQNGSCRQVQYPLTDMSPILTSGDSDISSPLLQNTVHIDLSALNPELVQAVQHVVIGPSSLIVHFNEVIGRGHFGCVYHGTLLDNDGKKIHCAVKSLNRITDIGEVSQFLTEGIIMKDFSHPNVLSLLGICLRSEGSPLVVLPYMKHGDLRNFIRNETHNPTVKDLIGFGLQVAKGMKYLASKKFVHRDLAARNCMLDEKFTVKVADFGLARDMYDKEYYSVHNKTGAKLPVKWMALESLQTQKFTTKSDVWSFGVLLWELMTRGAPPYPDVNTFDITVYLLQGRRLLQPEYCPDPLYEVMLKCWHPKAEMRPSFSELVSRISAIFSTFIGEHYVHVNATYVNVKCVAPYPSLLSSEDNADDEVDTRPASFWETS

| IC50 [1] [nM] | IC50 [2] [nM] | Compound |
| --- | --- | --- |
| 50 | 13 | CN1CC(N2CCN(C(=O)Nc3cc(Oc4ccc(NC(=O)C5(C(=O)Nc6ccc(F)cc6)CC5)cc4F)ccn3)CC2)C1 [Example 22, N-(3-Fluoro-4-{[2-({[4-(1-methylazetidin-3-yl)piperazin-1-yl]carbonyl}amino)pyridin-4-yl]oxy}phenyl)-N′-(4-fluorophenyl)cyclopropane-1,1-dicarboxamide] |
| 45 | 36 | CN(C)C1CCN(C(=O)Nc2cc(Oc3ccc(NC(=O)C4(C(=O)Nc5ccc(F)cc5)CC4)cc3F)ccn2)CC1 [Example 23, N-(4-{[2-({[4-(Dimethylamino)piperidin-1-yl]carbonyl}amino)pyridin-4-yl]oxy}-3-fluorophenyl)-N′-(4-fluorophenyl)cyclopropane-1,1-dicarboxamide] |
| 58 | 19 | O=C(Nc1cc(Oc2ccc(NC(=O)C3(C(=O)Nc4ccc(F)cc4)CC3)cc2F)ccn1)N1CCC(CN2CCC2)CC1 [Example 26, N-(4-{[2-({[4-(Azetidin-1-ylmethyl)piperidin-1-yl]carbonyl}amino)pyridin-4-yl]oxy}-3-fluorophenyl)-N′-(4-fluorophenyl)cyclopropane-1,1-dicarboxamide] |
| 59 | 48 | O=C(Nc1cc(Oc2ccc(NC(=O)C3(C(=O)Nc4ccc(F)cc4)CC3)cc2)ccn1)N1CCC(CN2CCC2)CC1 [Example 27, N-(4-{[2-({f [4-(Azetidin-1-ylmethyl)piperidin-1-yl]carbonyl}amino)pyridin-4-yl]oxy}phenyl)-N′-(4-fluorophenyl)cyclopropane-1,1-dicarboxamide] |
| 72 | 54 | O=C(Nc1cc(Oc2ccc(NC(=O)C3(C(=O)Nc4ccc(F)cc4)CC3)cc2)ccn1)N1CCN(CCN2CCC2)CC1 [Example 28, N-(4-{[2-({[4-(2-Azetidin-1-ylethyl)piperazin-1-yl]carbonyl}amino)pyridin-4-yl]oxy}phenyl)-N′-(4-fluorophenyl)cyclopropane-1,1-dicarboxamide] |
| 63 | 50 | O=C(Nc1cc(Oc2ccc(NC(=O)C3(C(=O)Nc4ccc(F)cc4)CC3)cc2)ccn1)N1CCC(CN2CCCC2)CC1 [Example 29, N-(4-Fluorophenyl)-N′-(4-{[2-({[4-(pyrrolidin-1-ylmethyl)piperidin-1-yl]-carbonyl}amino)pyridin-4-yl]oxy}phenyl)cyclopropane-1,1-dicarboxamide] |
| 44 | 39 | CN(C)CCN1CCN(C(=O)Nc2cc(Oc3ccc(NC(=O)C4(C(=O)Nc5ccc(F)cc5)CC4)cc3)ccn2)CC1 [Example 30, N-[4-({2-[({4-[2-(Dimethylamino)ethyl]piperazin-1-yl}carbonyl)amino]pyridin-4-yl}oxy)phenyl]-N′-(4-fluorophenyl)cyclopropane-1,1-dicarboxamide] |
| 62 | 31 | CN1CCC(N2CCN(C(=O)Nc3cc(Oc4ccc(NC(=O)C5(C(=O)Nc6ccc(F)cc6)CC5)cc4)ccn3)CC2)CC1 [Example 31, N-(4-Fluorophenyl)-N′-(4-{[2-({[4-(1-methylpiperidin-4-yl)piperazin-1-yl]carbonyl}amino)pyridin-4-yl]oxy}phenyl)cyclopropane-1,1-dicarboxamide] |
| 50 | 27 | CN1CCN(C2CCN(C(=O)Nc3cc(Oc4ccc(NC(=O)C5(C(=O)Nc6ccc(F)cc6)CC5)cc4)ccn3)CC2)CC1 [Example 32, N-(4-Fluorophenyl)-N′-(4-{[2-({[4-(4-methylpiperazin-1-yl)piperidin-1-yl]carbonyl}amino)pyridin-4-yl]oxy}phenyl)cyclopropane-1,1-dicarboxamide] |
| 53 | 14 | O=C(Nc1cc(Oc2ccc(NC(=O)C3(C(=O)Nc4ccc(F)cc4)CC3)c(F)c2)ccn1)N1CCC(CN2CCC2)CC1 [Example 37, N-(4-{[2-({[4-(Azetidin-1-ylmethyl)piperidin-1-yl]carbonyl}amino)pyridin-4-yl]oxy}-2-fluorophenyl)-N′-(4-fluorophenyl)cyclopropane-1,1-dicarboxamide] |

Second part, the molecule before the results:

| Compound | IC50 [1] [nM] | IC50 [2] [nM] |
| --- | --- | --- |
| CN(C)C1CN(C2CCN(C(=O)Nc3cc(Oc4ccc(NC(=O)C5(C(=O)Nc6ccc(F)cc6)CC5)cc4F)ccn3)CC2)C1 [Example 21, N-[4-({2-[({4-[3-(Dimethylamino)azetidin-1-yl]piperidin-1-yl}carbonyl)amino]pyridin-4-yl}oxy)-3-fluorophenyl]-N′-(4-fluorophenyl)cyclopropane-1,1-dicarboxamide] | 62 | 27 |
| CN(C)[C@H]1CCN(C(=O)Nc2cc(Oc3ccc(NC(=O)C4(C(=O)Nc5ccc(F)cc5)CC4)cc3F)ccn2)C1 [Example 24, N-(4-{[2-({[(3S)-3-(Dimethylamino)pyrrolidin-1-yl]carbonyl}amino)pyridin-4-yl]oxy}-3-fluorophenyl)-N′-(4-fluorophenyl)cyclopropane-1,1-dicarboxamide] | 48 | 17 |
| CN(C)CCN1CCC(N(C)C(=O)Nc2cc(Oc3ccc(NC(=O)C4(C(=O)Nc5ccc(F)cc5)CC4)c(F)c3)ccn2)CC1 [Example 25, N-(4-{[2-({[{1-[2-(Dimethylamino)ethyl]piperidin-4-yl}(methyl)amino]carbonyl}amino)pyridin-4-yl]oxy}-2-fluorophenyl)-N′-(4-fluorophenyl)cyclopropane-1,1-dicarboxamide] | 85 | 19 |
| CN1CCC(N(C)C(=O)Nc2cc(Oc3ccc(NC(=O)C4(C(=O)Nc5ccc(F)cc5)CC4)cc3F)ncn2)CC1 [Example 33, N-(3-Fluoro-4-{[6-({[methyl(1-methylpiperidin-4-yl)amino]carbonyl}amino)pyrimidin-4-yl]oxy}phenyl)-N′-(4-fluorophenyl)cyclopropane-1,1-dicarboxamide] | 26 | 55 |
| O=C(Nc1cc(Oc2ccc(NC(=O)C3(C(=O)Nc4ccc(F)cc4)CC3)cc2F)ncn1)N1CCC(N2CCC2)CC1 [Example 34, N-{4-[(6-{[(4-Azetidin-1-ylpiperidin-1-yl)carbonyl]amino}pyrimidin-4-yl)oxy]-3-fluorophenyl}-N′-(4-fluorophenyl)cyclopropane-1,1-dicarboxamide] | 73 | 190 |
| O=C(Nc1cc(Oc2ccc(NC(=O)C3(C(=O)Nc4ccc(F)cc4)CC3)cc2F)ncn1)N1CCOCC1 [Example 35, N-[3-Fluoro-4-({6-{(morpholin-4-ylcarbonyl)amino}pyrimidin-4-yl}oxy)phenyl]-N′-(4-fluorophenyl)cyclopropane-1,1-dicarboxamide] | 29 | 230 |
| CN(C)[C@@H]1CCN(C(=O)Nc2cc(Oc3ccc(NC(=O)C4(C(=O)Nc5ccc(F)cc5)CC4)cc3F)ccn2)C1 [Example 36, N-(4-{[2-({[(3R)-3-(Dimethylamino)pyrrolidin-1-yl]carbonyl}amino)pyridin-4-yl]oxy}-3-fluorophenyl)-N′-(4-fluorophenyl)cyclopropane-1,1-dicarboxamide] | 46 | 22 |

— patent US7855290B2, “Pyridine derivatives and pyrimidine derivatives (3)” (Eisai R&D Management Co., Ltd., priority 2005, dated 2010)
